Consider four compounds from patent publication EP0934746B1, “SUBSTANCE IN THE FORM OF AN AQUEOUS EXTRACT OF VEGETAL RAW MATERIAL FOR TREATING ONCOLOGICAL DISEASES, AND METHOD FOR PRODUCING THE SAME” (Gosudarstvenny Nauchny Tsentr Rossiiskoi Federatsii …, priority 1996, dated 1998).

For assay [1], the system named is lipid peroxidation processes (LPP) in murine liver homogenate. In words: Antioxidant activity: inhibition of lipid peroxidation processes (LPP) in liver homogenate, thiobarbituric acid colour reaction. The class given is biochemical, BDF-1 (nondescript) mice. The following applies: conventional unit = quantity required for 50% inhibition of LPP; 3 h at 37°C. The protocol: The antioxidant activity of the extracts was determined from the ability of a sample to inhibit the lipid peroxidation processes (LPP) in murine liver homogenate.
The antioxidant activity was used by using a method based on the ability of the sample being investigated to inhibit LPP processes in murine liver homogenate. The liver of BDF-1 (nondescript) mice was homogenized in a glass homogenizer and then centrifugated. The liver homogenate was introduced in an amount of 5-6 mg of protein per assay. The volume of the assay was brought to 0.5 ml with a solution of the sample being tested for the antioxidant activity. The assays were incubated for 3 h at 37°C.
The concentration of the LPP products was determined from the color reaction with thiobarbituric acid. The quantity of the antioxidant required for the 50% inhibition of LPP was adopted as a conventional unit of the sample under investigation.

The test system of assay [2] is cell culture of human pulmonary adenocarcinoma A-549. In words: Cytotoxic activity in vitro: inhibition of proliferation of A-549 cell culture, colorimetric. Format: cell-based. On the procedure:
The cytotoxic activity of the extracts in vitro was determined with the help of a biological test based on inhibition of the proliferation of the inoculated cell culture of human pulmonary adenocarcinoma A-549 [7].
When carrying out the cytotoxic biological test in vitro, each well of a flat-bottomed 96-well microtiter (Sarstedt, USA) was charged with 10 µl of a suspension of A549-line cells in a concentration of 1x10^5 cell/ml; 24 h later series dilutions of the vegetable preparations in the range of 1:4-1:64 were added, this corresponding to 3.0-0.1 mg/ml in the volume of 100 µl/well. The cytotoxic activity of the extracts and DDP was estimated colorimetrically. The results were expressed in the percentage of inhibition of the A-549 test-culture proliferation. The cytotoxic activity of the sample was adopted to be the maximum titer of the sample, at which the biologically significant (50%) level of inhibition of the A-549 test-culture proliferation was observed.

A further assay concerns Lymphoid leukemia L1210. Description: Influence of extract samples on curative effect of DDP in L1210 leukemia (TGI, LI). The class given is in vivo, mice BDF1. The following applies: for TGI, % days 4: day 4; for TGI, % days 6: day 6; for TGI, % days 8: day 8; for LI, %: lifetime increase. The protocol: In addition, the effect of the extracts on the therapeutic activity of the cytostatic cis-dichlorodiamine platinum (DDP) was estimated.
Lymphoid leukemia L1210 was inoculated to BDF1 males in a sterile physiologic salt solution, 3x10^6 cells in 0.2 ml volume. The day of the inoculation was regarded as the zero day of tumor growth. The extract samples and DDP were administered in the doses and under the conditions specified in Tables 4, 5.
Treatment of the animals was started 24 hours after the tumor inoculation, control animals were administered a physiologic salt solution instead of the vegetable extracts. The antitumoric effect was estimated from the tumor growth inhibition (TGI) calculated from theformula: TGI = [(Vcontrol - Vexperiment)/Vcontrol]x100%; [formula] mean lifetime (ML), lifetime increase (LI) calculated from the formula: LI = [(MLexperiment - MLcontrol)/Mlcontrol]x100%. [formula] TGI > 50%, LI > 50% were considered to be biologically significant effects.
The obtained data were processed in accordance with the Fisher-Student procedure, using statistical programs. The differences were regarded confident at p < 0.05.

Regarding `O=C1O[C@H]([C@@H](O)CO)C(O)=C1O` [Ascorbic acid (vitamin C), Ascorbic acid], the “Antioxidant activity, conv. units (1/mg)” value in assay [1] was 12 conv. units (1/mg).

As for `N.N.[Cl][Pt][Cl]` [DDP, cis-dichlorodiamine platinum], the “Inhibition, %” value in assay [2] (A-549 proliferation, at the titer/concentration in the column beside it) was 68%. Moreover, in assay [2] (DDP control), the “Maximum titer (as concentration)” value worked out at 10 µg/mL. Also, the “ability to inhibit proliferation of the cell culture A-549” value in assay [2] (at the concentration of 0.01 mg/ml) stood at 68%. Moreover, in the assay with Lymphoid leukemia L1210 (DDP alone 9 mg/kg), the “TGI, % days 4” value came to 100%; the “TGI, % days 6” value came to 93%; the “TGI, % days 8” value turned out to be 33%; the “LI, %” value is 41%. Also, in the assay with Lymphoid leukemia L1210 (DDP alone 10 mg/kg), the “TGI, % days 4” value is recorded as 100%; the “TGI, % days 6” value amounted to 87%; the “TGI, % days 8” value is on record as 65%; the “LI, %” value was determined as 32%.

On to `CC1=C(/C=C/C(C)=C/C=C/C(C)=C/C=C/C=C(C)/C=C/C=C(C)/C=C/C2=C(C)CCCC2(C)C)C(C)(C)CCC1` [β-Carotene], for which, in assay [1], the “Antioxidant activity, conv. units (1/mg)” value is recorded as 6 conv. units (1/mg).

On to “Retinol acetate [Retinol acetate (vitamin A)]”, for which the “Antioxidant activity, conv. units (1/mg)” value in assay [1] is 83 conv. units (1/mg).
